Source: patent US11307205B2, “Non-radioactive cytotoxicity assays” (University of Southern California, priority 2016, dated 2022)

Tests used:
BC-3-pLenti-GLuc cells = assay: Matador assay, drug induced cytotoxicity, BC-3; type: cell-based; conditions: 96 hours, different doses
Method: (§2) The cell pellets were lysed in 1× Renilla Luciferase Assay Lysis Buffer by diluting one volume of 5× Renilla Luciferase Assay Lysis Buffer (Promega, Cat #E2820) into four volumes of distilled water. GLuc activity was measured in the cellular supernatants and cell lysates fractions separately in triplicate by addition of 0.25× coelentrazine assay buffer (15 μl of assay buffer added to 15 μl of sample in a 384 well plate) to each fraction. For each sample, the average GLuc activity in the cellular supernatant was divided by the average GLuc activity in the cell lysates to normalize for difference in the number of GLuc expressing cells.

BCBL-1-pLenti-GLuc cells = assay: Matador assay, drug induced cytotoxicity, BCBL-1; conditions: 96 hours, different doses
Method: as §2

L428-GLuc cells = assay: Matador assay, antibody drug conjugate induced cell death, L428; type: cell-based; conditions: 5 days of drug treatment
Method: (§1) We next used the Matador cytotoxicity assay to measure cell death induced by CD30-directed antibody-drug-conjugate (ADC), Brentuximab vedotin (Adcetris). […] Similarly, Jurkat cells were transduced with MSCVhygro-GLuc-HA-G02 (SEQ ID NO: 95) retroviral vector and selected with hygromycin to generate Jurkat-GLuc stable cell line. These GLuc-expressing target cells were plated at a concentration of 10×10^5 cells/well in a flat-bottom 24 well plate in 500 μl of phenol-red-free RPMI medium with 10% FBS and treated with the indicated dose of Brentuximab vedotin. After 5 days of drug treatment, the cells were mixed well, collected in 1.5 ml microfuge tubes and divided into 3 groups of 166 μl each. For the first group, the cells with cell supernatant were directly assayed for luciferase activity by plating 30 μl of cells/well in a white 384 well plate in triplicate. For the second group, 166 μl of cells were centrifuged and only cell supernatants were collected in a new tube and plated at 30 μl/well in triplicate in a white 384 well plate. […] The luciferase activity was precisely measured by BioTek synergy plate reader by injecting 0.5× CTZ assay buffer containing native coeloentrazine into each well of the 384 well plate in a well mode. […]

KMH2-GLuc cells = assay: Matador assay, antibody drug conjugate induced cell death, KMH2; type: cell-based; conditions: 5 days of drug treatment
Method: as §1

Jurkat-GLuc cells = assay: Matador assay, antibody drug conjugate induced cell death, Jurkat; type: cell-based; conditions: 5 days of drug treatment
Method: as §1

[1] = system: RAJI cells expressing GLuc; assay: Antibody-dependent cellular cytotoxicity (ADCC) Matador assay; type: cell-based
Method: Antibody-dependent cellular cytotoxicity (ADCC) assay was performed performed essentially as described earlier (Teeling, French et al. 2004). To determine the cytotoxicity of Rituximab monoclonal antibody, the cell death was assessed using Matador assay. Peripheral Blood Mononuclear Cells (PBMC) were isolated by Ficoll-Hypaque gradient centrifugation from buffy coat cells obtained from a de-identified healthy donor as a source of natural effector. […] The cells were either left untreated, or treated with 1 μg/ml or 10 μg/ml of Rituximab. The plates were incubated at 37° C. for 4 hours in a CO2 incubator. After incubation for 4 hours, the cell death was assessed by luciferase assay by addition of CTZ assay buffer containing native coelentrazine to the wells as described earlier.

[2] = system: CAR CD8SP2-CD19MM-(vL-vH)-Myc-BBz-T2A-PAC T cell induced death of RAJI cells stably expressing GLuc; assay: Matador assay, drug modulation of CAR-T cell induced lysis of RAJI-GLuc cells; type: cell-based, Human; conditions: E:T 5:1, 4 hours co-culture; Dasatinib 50 nM and 100 nM
Method: Human peripheral blood T cells isolated using CD3 magnetic beads were infected with lentiviruses expressing the CAR construct CD8SP2-CD19MM-(vL-vH)-Myc-BBz-T2A-PAC [SEQ ID NO: 82] targeting CD19 and selected with puromycin. CAR-T cells were pre-incubated with the indicated concentrations of Dasatinib and Imatinib for approximately 30 min at 37° C. The drug-treated and untreated T cells were plated in a white 384-well plate. […] Dasatinib (Das) and Imatinib (Imat) were added to the wells to maintain the final concentrations as indicated. […] Therefore, the assay can be used to screen for and identify candidate compounds that modulate the activity of cytotoxic cells, such as cytotoxic T cells, NK cells, CAR-T cells and T cells expressing engineered TCRs.

[3] = Stability of luciferases in cell culture supernatants at 37° C. under Matador assay conditions; type: physicochemical; conditions: for time for which luminescence was stable: cell culture supernatants of K562 cells co-cultured with NK92MI
Method: Post-incubation, the cell-free supernatants were divided into 7 different tubes and frozen immediately at −80° C. The tubes were then incubated at 37° C. for 0, 0.5, 1, 2, 4, 6, and 24 hours.
Although thermostable luciferases are stable at 37° C., it was not obvious whether thermostability is the only criteria for stability of a reporter under the conditions used in the cytotoxicity assays. Thus, a thermostable luciferase could be degraded under the culture conditions of the cytotoxicity assay due to the activity of proteases that are present in the serum or are released during the process of cell death. Therefore, to examine whether thermostable luciferases are suitable for inclusion in the Matador cytotoxicity assay, K562 cells stably expressing LucPPe-146-1H2 mutant were plated in a 6-well plate, treated with media alone (control) or co-cultured with NK92MI at Effector:Target (E:T) ratio of 1:1 for 4 hours. After incubation, cell-free supernatants were transferred into 7 different tubes and frozen immediately at −80° C. The tubes were directly transferred to 37° C. (from −80° C.) and were incubated for indicated time periods (0 to 24 hours). The luminescence was measured by adding D-luciferin containing assay buffer directly to each well in well mode. […] Furthermore, the luminescence signal was stable in the cell culture medium for nearly 4-6 hours.

[4] = cited from earlier work
[5] = Stability of luciferase activity in supernatants after freezing and thawing; type: physicochemical; conditions: supernatants frozen, thawed two weeks later
Excerpt: Two weeks later, the supernatants were thawed and then re-assayed after addition of coeloentrazine.

## COc1c(C)cnc(Cn2cnc3c(Cl)nc(N)nc32)c1C [BIIB021]
BC-3-pLenti-GLuc cells
  GLuc activity in the supernatant normalized to cell lysates: significant increase in GLuc activity in the supernatant
BCBL-1-pLenti-GLuc cells
  GLuc activity in the supernatant normalized to cell lysates: significant increase in GLuc activity in the supernatant

## Brentuximab vedotin
L428-GLuc cells
  GLuc activity in cell supernatant normalized for GLuc activity in cell lysates: significant increase in GLuc activity in cell supernatant
L428-GLuc cells; not normalized
  GLuc activity in the supernatant: increase in GLuc activity in the supernatant
KMH2-GLuc cells
  GLuc activity in cell supernatant normalized for GLuc activity in cell lysates: significant increase in GLuc activity in cell supernatant
KMH2-GLuc cells; not normalized
  GLuc activity in the supernatant: increase in GLuc activity in the supernatant
Jurkat-GLuc cells
  GLuc activity in cell supernatant normalized for GLuc activity in cell lysates: significant increase in GLuc activity in cell supernatant
Jurkat-GLuc cells; not normalized
  GLuc activity in the supernatant: increase in GLuc activity in the supernatant

## rituximab: Rituximab monoclonal antibody, obtained from Genentech
[1]; RAJI cells stably expressing NLuc
  luciferase activity: Essentially similar results
[1]; in the presence of PBMC, 4 hours, vs untreated cells
  increase in GLuc activity: greater than 10 fold
[1]; in the presence of PBMC, 1 μg/ml and 10 μg/ml
  luciferase activity: increase in luciferase activity
[1]; rituximab alone, 1 μg/ml and 10 m/ml, 4 hours, vs untreated cells
  luciferase activity: increase in luciferase activity

## Cc1sc2c(c1C)C(c1ccc(Cl)cc1)=N[C@@H](CC(=O)OC(C)(C)C)c1nnc(C)n1-2 [JQ1]
BC-3-pLenti-GLuc cells
  GLuc activity in the supernatant normalized to cell lysates: significant increase in GLuc activity in the supernatant
BCBL-1-pLenti-GLuc cells
  GLuc activity in the supernatant normalized to cell lysates: significant increase in GLuc activity in the supernatant

## Cc1ccc(NC(=O)c2ccc(CN3CCN(C)CC3)cc2)cc1Nc1nccc(-c2cccnc2)n1 [Imatinib]
[2]
  CAR-T cell induced cell death (GLuc activity): no effect

B1: NLuc: NanoLuc, SEQ ID NO: 32 (protein)
chain: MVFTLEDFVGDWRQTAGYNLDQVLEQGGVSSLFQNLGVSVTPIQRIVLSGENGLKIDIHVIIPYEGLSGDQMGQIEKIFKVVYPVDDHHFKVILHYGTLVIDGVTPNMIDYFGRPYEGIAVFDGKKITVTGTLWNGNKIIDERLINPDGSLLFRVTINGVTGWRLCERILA
modifications: NLuc (NanoLuc)
[3]
  time for which luminescence was stable: 24 h
[4]; 37° C.
  time activity is retained in culture medium: > 15 h
[4]; configured for glow-type assays
  specific activity relative to firefly or Renilla luciferases: ~150 fold

B2: Renilla Luc: Renilla Luc, SEQ ID NO: 49 (protein)
chain: MASKVYDPEQRKRMITGPQWWARCKQMNVLDSFINYYDSEKHAENAVIFLHGNAASSYLWRHVVPHIEPVARCIIPDLIGMGKSGKSGNGSYRLLDHYKYLTAWFELLNLPKKIIFVGHDWGACLAFHYSYEHQDKIKAIVHAESVVDVIESWDEWPDIEEDIALIKSEEGEKMVLENNFFVETMLPSKIMRKLEPEEFAAYLEPFKEKGEVRRPTLSWPREIPLVKGGKPDVVQIVRNYNAYLRASDDLPKMFIESDPGFFSNAIVEGAKKFPNTEFVKVKGLHFSQEDAPDEMGKYIKSFVERVLKNEQ
modifications: RLuc (Renilla Luc)
[5]
  luciferase activity after freezing and thawing: no major change

B3: TLuc16: TurboLuc16, SEQ ID NO: 33 (protein)
chain: MEAEAERGKLPGKKLPLEVLIELEANARKAGCTRGCLICLSKIKCTAKMKKYIPGRCADYGGDKKTGQAGIVGAIVDIPEISGFKEMEPMEQFIAQVDRCADCTTGCLKGLANVKCSDLLKKWLPGRCATFADKIQSEVDNIKGLAGD
modifications: TLuc (TurboLuc16)
[3]
  time for which luminescence was stable: 24 h

B4: Mluc7: Metrida longa Luc7 M43L/M110L variant, SEQ ID NO: 34 (protein)
chain: MNPTVNNDVNRGKMPGKKLPLEVLIELEANAFKAGCTRGCLICLSKIKCTAKMKQYIPGRCHDYGGDKKTGQAGIVGAIVDIPEISGFKEMEPLEQFIAQVDLCADCTTGCLKGLANVKCSELLKKWLPDRCASFADKIQKEAHNIKGLAGDR
modifications: MLuc7 (Metrida longa Luc7) M43L/M110L variant
[3]
  time for which luminescence was stable: 24 h

B5: LucPPe-146-1H2: thermostable luciferase from Photuris pennsylvanica, SEQ ID NO: 51 (protein)
chain: MADKNILYGPEPFYPLEDGTAGEQMFDALSRYAAIPGCIALTNAHTKENVLYEEFLKLSCRLAESFKKYGLKQNDTIAVCSENSLQFFLPVIASLYLGIIVAPVNDKYIERELIHSLGIVKPRIVFCSKNTFQKVLNVKSKLKSIETIIILDLNEDLGGYQCLNNFISQNSDSNLDVKKFKPYSFNRDDQVASIMFSSGTTGLPKGVMLTHKNIVARFSIAKDPTFGNAINPTSAILTVIPFHHGFGMMTTLGYFTCGFRVVLMHTFEEKLFLQSLQDYKVESTLLVPTLMAFLAKSALVEKYDLSHLKEIASGGAPLSKEIGEMVKKRFKLNFVRQGYGLTETTSAVLITPKGDAKPGSTGKIVPLHAVKVVDPTTGKILGPNEPGELYFKGPMIMKGYYNNEEATKAIIDNDGWLRSGDIAYYDNDGHFYIVDRLKSLIKYKGYQVAPAEIEGILLQHPYIVDAGVTGIPDEAAGELPAAGVVVQTGKYLNEQIVQDYVASQVSTAKWLRGGVKFLDEIPKGSTGKIDRKVLRQMLEKHTNG
modifications: LucPPe-146-1H2
[3]; supernatants of K562 LucPPe-146-1H2 cells
  time for which luminescence signal was stable in the cell culture medium: 4 to 6 h
